Measurements reported in US9198906B2, “Ketoconazole enantiomer in humans” (Cortendo AB (publ), priority 2006, dated 2015).

Key:
[1] = test system: patients with type 2 diabetes mellitus; assay: Phase 2a trial, C-reactive protein (marker of inflammation); assay type: in vivo, human; settings: for C-Reactive Protein (CRP) Visit 3 mean: Visit 3 (Day 15); for C-Reactive Protein (CRP) Visit 1 mean: Visit 1 (baseline, before first dose)
Description: Five (5) dose groups were studied.
(§1) The first dose of the study drug was given on Day 1 at 2200 h. Activity markers measured on Day 1 prior to administration of the drug (“Visit 1”). The last dose of study drug was given on Day 14 at 2200 h and activity markers measured on Day 15 (“Visit 3”). Measurements of safety markers were taken on Visits 1 and 3, as well as Visit 2 (Day 8) and Visit 4 (Day 28).

[2] = test system: patients with type 2 diabetes mellitus; assay: Phase 2a trial, liver function tests (AST/ALT/AP)
Description: as §1

[3] = plasma; Beagle dogs, racemic ketoconazole 30 mg/dog intravenous bolus
Description: The pharmacokinetics of each of the ketoconazole enantiomers was studied following intravenous administration of racemic ketoconazole. Racemic ketoconazolewas dissolved in ethanol to 60 mg/ml. Each of three Beagle dogs was administered 0.5 ml bolus (30 mg/dog) intravenously.
Blood was collected from each dog prior to dosing (“0 min”) and at 2, 5, 10, 15, 30 min, and 1, 2, 4, 6, 8, and 24 hrs post-dosing. At each timepoint, blood (0.3 mL/sample) was collected and placed into labeled Microtainer® tubes with heparin as the anti-coagulant. The heparinized blood was centrifuged, and the supernatant pipetted off into another set of labeled Eppendorf® tubes. The derived plasma samples were analyzed for each of the two ketoconazole enantiomers (2S,4R and 2R,4S) and pharmacokinetic parameters determined for each of the enantiomers.

[4] = target: T1, 14a-lanosterol demethylase (Rattus norvegicus, UniProt Q64654); settings: compared with the other (2R,4S) enantiomer; Rotstein et al. 1992; cited from earlier work
T1 sequence (Q64654 1-503): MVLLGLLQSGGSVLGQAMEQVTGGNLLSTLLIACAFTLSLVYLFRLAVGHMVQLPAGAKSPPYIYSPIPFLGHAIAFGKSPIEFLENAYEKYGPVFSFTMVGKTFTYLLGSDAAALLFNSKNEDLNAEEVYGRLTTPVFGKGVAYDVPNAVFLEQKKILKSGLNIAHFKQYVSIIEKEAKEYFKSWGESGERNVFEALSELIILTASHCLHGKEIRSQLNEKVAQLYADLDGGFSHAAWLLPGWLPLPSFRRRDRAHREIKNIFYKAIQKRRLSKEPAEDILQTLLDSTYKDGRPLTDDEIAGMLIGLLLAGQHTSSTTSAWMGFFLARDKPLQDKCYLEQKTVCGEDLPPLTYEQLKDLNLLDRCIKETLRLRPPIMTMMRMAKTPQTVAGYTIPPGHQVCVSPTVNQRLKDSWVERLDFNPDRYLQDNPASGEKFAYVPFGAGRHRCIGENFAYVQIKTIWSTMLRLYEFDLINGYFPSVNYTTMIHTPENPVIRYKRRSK

[5] = test system: patients with type 2 diabetes mellitus; assay: Phase 2a trial, fasting glucose; settings: two weeks of treatment
Description: The secondary objective was to determine the pharmacokinetic (PK) profile in plasma of the 2S,4R enantiomer after a single dosing and after fourteen daily doses. In addition the pharmacodynamic activity of fourteen daily doses of the 2S,4R enantiomer, as reflected by changes in blood pressure, total and LDL cholesterol, CRP, plasma and salivary cortisol, cortisol binding globulin, measures of glycemic control (fructosamine, HbA1c and fasting blood glucose levels).
Five (5) dose groups were studied. The dose groups are as follows (N=subjects who completed the study):

[6] = Subject 02-002, 200 mg DIO-902, Screening Visit
[7] = Subject 02-002, 200 mg DIO-902, Visit 1 (pre-1st dose)
[8] = Subject 02-002, 200 mg DIO-902, Visit 2
[9] = Subject 02-002, 200 mg DIO-902, Visit 3 (last dose)
[10] = Subject 04-004, 400 mg DIO-902, Screening Visit
[11] = Subject 04-004, 400 mg DIO-902, Visit 1 (pre-1st dose)
[12] = Subject 04-004, 400 mg DIO-902, Visit 2
[13] = Subject 04-004, 400 mg DIO-902, Visit 3 (last dose)
[14] = Subject 04-010, 400 mg DIO-902, Screening Visit
[15] = Subject 04-010, 400 mg DIO-902, Visit 1 (pre-1st dose)
[16] = Subject 04-010, 400 mg DIO-902, Visit 2
[17] = Subject 04-010, 400 mg DIO-902, Visit 3 (last dose)

## 2S,4R ketoconazole [DIO-902]
[1]; 200 mg po QD, 14 daily doses
  C-Reactive Protein (CRP) Visit 3 mean: 4.78 mg/L
[1]; 400 mg po QD group
  C-Reactive Protein (CRP) Visit 1 mean: 4.02 mg/L
[1]; 400 mg po QD, 14 daily doses
  CRP Mean % change vs baseline: −27.35%
  C-Reactive Protein (CRP) Visit 3 mean: 2.95 mg/L
[1]; 600 mg po QD group
  C-Reactive Protein (CRP) Visit 1 mean: 8.35 mg/L
[1]; 600 mg po QD, 14 daily doses
  CRP Mean % change vs baseline: −48.64%
  C-Reactive Protein (CRP) Visit 3 mean: 5.05 mg/L
[1]; 14 daily doses
  effect on CRP: dose-dependent decrease
[2]; 14 daily doses
  evidence of hepatotoxicity: not observed
[2]; [6]
  ALT: 30 u/L
  AP: 110 u/L
  AST: 58 u/L
[2]; [7]
  ALT: 22 u/L
  AP: 100 u/L
  AST: 34 u/L
[2]; [8]
  ALT: 21 u/L
  AP: 103 u/L
  AST: 30 u/L
[2]; [9]
  ALT: 19 u/L
  AP: 97 u/L
  AST: 35 u/L
[2]; [10]
  ALT: 25 u/L
  AP: 132 u/L
  AST: 48 u/L
[2]; [11]
  ALT: 25 u/L
  AP: 108 u/L
  AST: 49 u/L
[2]; [12]
  ALT: 28 u/L
  AP: 125 u/L
  AST: 49 u/L
[2]; [13]
  ALT: 25 u/L
  AP: 130 u/L
  AST: 46 u/L
[2]; [14]
  ALT: 27 u/L
  AP: 73 u/L
  AST: 49 u/L
[2]; [15]
  ALT: 24 u/L
  AP: 60 u/L
  AST: 48 u/L
[2]; [16]
  ALT: 14 u/L
  AP: 82 u/L
  AST: 40 u/L
[2]; [17]
  ALT: 19 u/L
  AP: 64 u/L
  AST: 38 u/L
[2]; two patients
  liver function test values outside the normal range at baseline (hepato-protection, words): normalized
[3]
  clearance: 8.08 mL/min/kg
  terminal half life: 1.397 h
[4]
  activity against 14a-lanosterol demethylase: more active
[5]
  Reductions in fasting glucose levels: up to 15 mg/dL
